Consider one molecule from the supplement of paper PMC12076712.

Structures are written as SMILES. ± gives the standard deviation of the averaged measurements. Bounds are passed on as bounds.

Targets include TAOK3 (UniProt Q9H2K8); CAMKK1 (UniProt Q8N5S9); PAK2 (UniProt Q13177).
Assay in all cases: pIC50, kinobeads binding competition
Common to all, as to settings: cell material: Jurkat lysate

A further test has as its target T1, RIOK1 (UniProt Q9BRS2).
T1 sequence (whole entry): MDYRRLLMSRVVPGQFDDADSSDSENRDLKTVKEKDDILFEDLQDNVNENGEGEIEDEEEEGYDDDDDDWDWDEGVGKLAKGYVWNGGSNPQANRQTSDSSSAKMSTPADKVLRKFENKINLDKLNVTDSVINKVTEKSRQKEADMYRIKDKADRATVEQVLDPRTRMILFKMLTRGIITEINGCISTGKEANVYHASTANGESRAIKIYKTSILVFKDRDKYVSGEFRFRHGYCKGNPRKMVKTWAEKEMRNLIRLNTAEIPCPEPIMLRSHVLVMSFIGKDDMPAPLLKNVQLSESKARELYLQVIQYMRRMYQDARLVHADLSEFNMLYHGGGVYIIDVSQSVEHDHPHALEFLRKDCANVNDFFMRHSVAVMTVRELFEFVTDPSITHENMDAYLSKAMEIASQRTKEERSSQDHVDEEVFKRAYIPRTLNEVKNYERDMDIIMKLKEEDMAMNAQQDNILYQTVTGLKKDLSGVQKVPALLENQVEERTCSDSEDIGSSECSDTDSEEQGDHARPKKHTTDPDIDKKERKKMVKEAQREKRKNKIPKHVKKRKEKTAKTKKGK

The target of another test is T2, CDKL5 (UniProt O76039).
T2 sequence (whole entry): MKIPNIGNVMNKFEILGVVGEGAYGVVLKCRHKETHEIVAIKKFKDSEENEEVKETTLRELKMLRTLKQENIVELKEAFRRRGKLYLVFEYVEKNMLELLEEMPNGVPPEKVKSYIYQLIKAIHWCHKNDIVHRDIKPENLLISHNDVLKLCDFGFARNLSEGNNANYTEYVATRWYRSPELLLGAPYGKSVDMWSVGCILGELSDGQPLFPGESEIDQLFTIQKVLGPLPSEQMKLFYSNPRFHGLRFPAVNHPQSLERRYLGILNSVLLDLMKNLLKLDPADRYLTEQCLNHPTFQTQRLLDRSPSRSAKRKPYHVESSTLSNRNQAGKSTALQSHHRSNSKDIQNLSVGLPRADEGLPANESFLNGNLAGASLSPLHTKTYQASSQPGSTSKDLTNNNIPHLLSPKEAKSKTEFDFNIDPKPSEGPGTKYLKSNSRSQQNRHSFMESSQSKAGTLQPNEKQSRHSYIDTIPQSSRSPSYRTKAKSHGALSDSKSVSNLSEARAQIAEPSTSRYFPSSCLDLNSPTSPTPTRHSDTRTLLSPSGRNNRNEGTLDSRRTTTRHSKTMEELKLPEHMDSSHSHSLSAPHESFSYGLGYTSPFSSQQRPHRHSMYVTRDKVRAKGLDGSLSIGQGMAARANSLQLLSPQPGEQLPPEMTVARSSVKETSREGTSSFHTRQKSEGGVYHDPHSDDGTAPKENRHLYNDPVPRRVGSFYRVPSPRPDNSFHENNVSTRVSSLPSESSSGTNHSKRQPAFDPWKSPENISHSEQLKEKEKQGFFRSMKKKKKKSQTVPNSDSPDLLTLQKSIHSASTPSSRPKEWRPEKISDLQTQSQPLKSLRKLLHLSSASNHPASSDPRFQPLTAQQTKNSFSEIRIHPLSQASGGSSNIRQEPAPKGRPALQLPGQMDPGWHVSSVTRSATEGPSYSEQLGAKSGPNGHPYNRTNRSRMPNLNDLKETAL

In a further test the target is T3, UniProt O14920.
T3 sequence (whole entry): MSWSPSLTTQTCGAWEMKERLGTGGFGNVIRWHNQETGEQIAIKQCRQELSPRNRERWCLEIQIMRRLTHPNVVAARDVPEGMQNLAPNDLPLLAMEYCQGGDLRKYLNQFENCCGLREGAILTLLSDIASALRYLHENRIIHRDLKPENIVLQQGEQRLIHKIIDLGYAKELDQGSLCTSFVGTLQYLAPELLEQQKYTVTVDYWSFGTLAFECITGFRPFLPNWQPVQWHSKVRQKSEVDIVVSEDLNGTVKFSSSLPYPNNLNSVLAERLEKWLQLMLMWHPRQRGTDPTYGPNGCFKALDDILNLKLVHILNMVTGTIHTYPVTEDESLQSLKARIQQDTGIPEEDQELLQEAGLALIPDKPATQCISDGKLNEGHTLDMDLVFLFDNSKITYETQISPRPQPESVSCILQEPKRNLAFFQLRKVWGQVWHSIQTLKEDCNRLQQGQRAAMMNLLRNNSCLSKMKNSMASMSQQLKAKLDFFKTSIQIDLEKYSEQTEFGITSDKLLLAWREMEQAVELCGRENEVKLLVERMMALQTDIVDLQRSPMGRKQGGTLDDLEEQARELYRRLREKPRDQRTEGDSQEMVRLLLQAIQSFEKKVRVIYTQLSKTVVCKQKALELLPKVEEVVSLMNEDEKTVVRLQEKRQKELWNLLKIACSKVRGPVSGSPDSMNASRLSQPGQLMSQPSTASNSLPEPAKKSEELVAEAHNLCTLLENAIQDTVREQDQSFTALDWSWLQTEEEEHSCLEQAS

TAOK3, sequence (Q9H2K8 whole entry, looked up): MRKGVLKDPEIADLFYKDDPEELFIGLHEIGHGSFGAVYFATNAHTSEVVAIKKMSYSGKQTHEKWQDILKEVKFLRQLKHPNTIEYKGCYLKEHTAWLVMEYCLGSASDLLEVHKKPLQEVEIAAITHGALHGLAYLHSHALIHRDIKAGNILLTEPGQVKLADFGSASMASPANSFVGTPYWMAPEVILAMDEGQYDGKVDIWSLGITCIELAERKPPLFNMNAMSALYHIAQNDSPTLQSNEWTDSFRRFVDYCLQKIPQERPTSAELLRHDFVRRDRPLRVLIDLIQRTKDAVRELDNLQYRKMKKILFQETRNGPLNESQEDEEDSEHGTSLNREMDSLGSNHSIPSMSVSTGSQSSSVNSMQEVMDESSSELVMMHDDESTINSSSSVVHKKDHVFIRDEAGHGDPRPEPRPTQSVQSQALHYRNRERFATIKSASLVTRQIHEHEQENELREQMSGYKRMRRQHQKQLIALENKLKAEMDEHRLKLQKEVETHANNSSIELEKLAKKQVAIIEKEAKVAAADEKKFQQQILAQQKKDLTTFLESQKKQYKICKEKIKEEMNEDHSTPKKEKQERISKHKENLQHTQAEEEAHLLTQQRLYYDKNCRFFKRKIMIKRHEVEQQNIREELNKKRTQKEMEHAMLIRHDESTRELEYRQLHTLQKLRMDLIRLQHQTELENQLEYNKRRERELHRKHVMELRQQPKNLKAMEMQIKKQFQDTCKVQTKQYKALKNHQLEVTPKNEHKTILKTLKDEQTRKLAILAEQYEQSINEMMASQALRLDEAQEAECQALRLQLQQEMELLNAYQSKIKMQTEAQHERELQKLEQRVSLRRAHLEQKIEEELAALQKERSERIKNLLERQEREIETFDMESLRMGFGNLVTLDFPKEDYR
PAK2, sequence (Q13177 whole entry): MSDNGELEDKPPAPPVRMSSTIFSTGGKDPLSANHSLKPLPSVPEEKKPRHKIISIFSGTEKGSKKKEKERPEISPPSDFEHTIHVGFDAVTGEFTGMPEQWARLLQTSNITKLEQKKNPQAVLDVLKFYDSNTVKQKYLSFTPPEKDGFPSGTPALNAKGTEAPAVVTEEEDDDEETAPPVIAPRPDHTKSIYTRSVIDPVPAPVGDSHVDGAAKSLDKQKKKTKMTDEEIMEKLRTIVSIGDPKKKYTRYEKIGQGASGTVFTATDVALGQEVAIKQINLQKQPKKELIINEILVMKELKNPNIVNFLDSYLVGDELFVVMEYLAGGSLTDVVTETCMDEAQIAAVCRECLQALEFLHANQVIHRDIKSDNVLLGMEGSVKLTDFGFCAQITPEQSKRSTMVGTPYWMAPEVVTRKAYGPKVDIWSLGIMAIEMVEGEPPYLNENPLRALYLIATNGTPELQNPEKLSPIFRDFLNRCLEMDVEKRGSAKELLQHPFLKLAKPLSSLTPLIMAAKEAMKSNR
CAMKK1, sequence (Q8N5S9 whole entry, looked up): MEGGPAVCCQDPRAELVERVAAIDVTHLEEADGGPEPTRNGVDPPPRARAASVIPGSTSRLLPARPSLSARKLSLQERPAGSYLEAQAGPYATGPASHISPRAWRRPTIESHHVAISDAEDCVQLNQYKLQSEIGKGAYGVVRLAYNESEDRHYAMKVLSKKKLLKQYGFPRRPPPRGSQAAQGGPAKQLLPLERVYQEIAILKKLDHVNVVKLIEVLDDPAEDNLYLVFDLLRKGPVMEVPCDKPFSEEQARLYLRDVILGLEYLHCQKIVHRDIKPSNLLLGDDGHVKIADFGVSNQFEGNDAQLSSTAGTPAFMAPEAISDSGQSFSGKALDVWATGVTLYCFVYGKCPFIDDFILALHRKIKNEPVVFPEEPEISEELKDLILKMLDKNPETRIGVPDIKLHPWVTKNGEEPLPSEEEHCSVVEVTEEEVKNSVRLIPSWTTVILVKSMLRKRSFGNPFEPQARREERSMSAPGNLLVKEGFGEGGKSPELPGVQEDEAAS

A word on the pIC50: it is the IC50 on a negative log10 scale, so that one unit is a factor of ten. Turning to `CCc1cnn2c(NCc3ccc[n+]([O-])c3)cc(N3CCCC[C@H]3CCO)nc12` [dinaciclib], the pIC50 was 5.79 ± 0.13 at TAOK3; less than 4.52 at RIOK1; 6.485 ± 0.035 at CDKL5; 4.6 at CAMKK1; less than 4.52 at UniProt O14920; less than 4.52 on PAK2.
